Measured values reported in US11897851B2, “Heterocyclic GLP-1 agonists” (Gasherbrum Bio, Inc., priority 2021, dated 2024).

Target: T1, GLP-1 Receptor (Homo sapiens, UniProt P43220)
T1 construct: host or cells: HEK293/GLP1R/CRE-LUC (HEK293/CRE-Luc stably expressing the GLP-1 receptor)
Experiment: GLP-1R agonist cAMP stimulation assay (HEK293/GLP1R/CRE-LUC cells, Cisbio cAMP dynamic 2 kit);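 note: compounds tested in half-log serial dilution, cAMP detected with cAMP-d2 and anti-cAMP cryptate antibody reagents after 1 h at room temperature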
Format: cell-based
Settings: HEK293/CRE-Luc cell line stably expressing the GLP-1 Receptor; 1000 cells/well; 30 min at 37° C.; 0.5 mM IBMX, 0.1% BSA; read-out: GLP1R cAMP Stimulation DR: EC50

T1 sequence (P43220 24-463, species assumed): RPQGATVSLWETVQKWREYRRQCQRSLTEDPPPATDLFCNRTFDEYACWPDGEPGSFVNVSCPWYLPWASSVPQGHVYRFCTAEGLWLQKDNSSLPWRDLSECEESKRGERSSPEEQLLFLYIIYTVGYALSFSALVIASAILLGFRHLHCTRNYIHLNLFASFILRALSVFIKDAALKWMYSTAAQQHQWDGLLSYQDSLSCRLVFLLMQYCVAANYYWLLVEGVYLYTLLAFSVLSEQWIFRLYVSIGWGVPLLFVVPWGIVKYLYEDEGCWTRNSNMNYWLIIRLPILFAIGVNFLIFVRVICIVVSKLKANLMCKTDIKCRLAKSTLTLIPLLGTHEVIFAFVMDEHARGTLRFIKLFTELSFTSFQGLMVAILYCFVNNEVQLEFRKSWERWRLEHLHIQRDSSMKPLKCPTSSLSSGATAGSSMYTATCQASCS

EC50 [nM] | SMILES
0.012 | Cc1nocc1Cn1c(/C=C/C(=O)O)cnc1CN1CCC(c2cccc3c2OC(C)(c2ccc(Cl)cc2F)O3)CC1 (stereo not drawn) [Compound 204, (E)-3-(2-((4-(2-(4-chloro-2-fluorophenyl)-2-methylbenzo[d][1,3]dioxol-4-yl)piperidin-1-yl)methyl)-1-((3-methylisoxazol-4-yl)methyl)-1H-imidazol-5-yl)acrylic acid]
0.015 | CCn1cncc1Cn1c(CCC(=O)O)nnc1CN1CCC(c2cccc3c2OC(C)(c2ccc(Cl)cc2F)O3)CC1 (stereo not drawn) [Compound 144, 3-(5-((4-(2-(4-chloro-2-fluorophenyl)-2-methylbenzo[d][1,3]dioxol-4-yl)piperidin-1-yl)methyl)-4-((1-ethyl-1H-imidazol-5-yl)methyl)-4H-1,2,4-triazol-3-yl)propanoic acid]
0.12 | CC1(c2ccc(Cl)cc2F)Oc2cccc(C3CCN(Cc4ncc(/C=C/C(=O)O)n4C[C@H]4CCCO4)CC3)c2O1 (stereo partly drawn) [Compound 160, (E)-3-(2-((4-(2-(4-chloro-2-fluorophenyl)-2-methylbenzo[d][1,3]dioxol-4-yl)piperidin-1-yl)methyl)-1-(((R)-tetrahydrofuran-2-yl)methyl)-1H-imidazol-5-yl)acrylic acid]
0.014 | CC1(c2ccc(Cl)cc2F)Oc2cccc(C3CCN(Cc4ncc(/C=C/C(=O)O)n4CC4CCS4(=O)=O)CC3)c2O1 (stereo not drawn) [Compound 165, (E)-3-(2-((4-(2-(4-chloro-2-fluorophenyl)-2-methylbenzo[d][1,3]dioxol-4-yl)piperidin-1-yl)methyl)-1-((1,1-dioxidothietan-2-yl)methyl)-1H-imidazol-5-yl)acrylic acid]
28.2 | Cn1c(C2CC2C(=O)O)cnc1CN1CCC(c2cccc(OCc3ccc(Cl)cc3F)n2)CC1 (stereo not drawn) [Compound 108, 2-(2-((4-(6-((4-chloro-2-fluorobenzyl)oxy)pyridin-2-yl)piperidin-1-yl)methyl)-1-methyl-1H-imidazol-5-yl)cyclopropanecarboxylic acid]
0.33 | Cn1c(/C=C/C(=O)O)cnc1CN1CCC(c2cccc3c2OC(C)(c2ccc(Cl)cc2F)O3)CC1 (stereo not drawn) [Compound 164, (E)-3-(2-((4-(2-(4-chloro-2-fluorophenyl)-2-methylbenzo[d][1,3]dioxol-4-yl)piperidin-1-yl)methyl)-1-methyl-1H-imidazol-5-yl)acrylic acid]
0.0067 | C[C@H](Cn1c(/C=C/C(=O)O)cnc1CN1CCC(c2cccc3c2O[C@@](C)(c2ccc(Cl)cc2F)O3)CC1)OC1CC1 [Compound 170b, (E)-3-(2-((4-((S)-2-(4-chloro-2-fluorophenyl)-2-methylbenzo[d][1,3]dioxol-4-yl)piperidin-1-yl)methyl)-1-((R)-2-cyclopropoxypropyl)-1H-imidazol-5-yl)acrylic acid]
0.0069 | C[C@]1(c2ccc(Cl)cc2F)Oc2cccc(C3CCN(Cc4ncc(/C=C/C(=O)O)n4C[C@@H]4CCS4(=O)=O)CC3)c2O1 (single isomer, unassigned) [Compound 173a]
38 | CC(=CC(=O)O)c1nnc(CN2CCC(c3cccc(OCc4ccc(Cl)cc4F)n3)CC2)n1CC1CCC1 [Compound 236, 3-(5-((4-(6-((4-chloro-2-fluorobenzyl)oxy)pyridin-2-yl)piperidin-1-yl)methyl)-4-(cyclobutylmethyl)-4H-1,2,4-triazol-3-yl)but-2-enoic acid]
0.0012 | CCn1cncc1Cn1c(/C=C/C(=O)O)cnc1CN1CCC(c2cccc3c2O[C@@](C)(c2ccc(Cl)cc2F)O3)CC1 [Compound 139a, (S,E)-3-(2-((4-(2-(4-chloro-2-fluorophenyl)-2-methylbenzo[d][1,3]dioxol-4-yl)piperidin-1-yl)methyl)-1-((1-ethyl-1H-imidazol-5-yl)methyl)-1H-imidazol-5-yl)acrylic acid]
> 1000 | CC(C)(Oc1ccc(CN2CCC(c3cccc(OCc4ccc(Cl)cc4F)n3)CC2)nc1)C(=O)O [Compound 122, 2-((6-((4-(6-((4-chloro-2-fluorobenzyl)oxy)pyridin-2-yl)piperidin-1-yl)methyl)pyridin-3-yl)oxy)-2-methylpropanoic acid]
4.5 | Cc1cc(-c2nnc(C(F)(F)F)[nH]2)cnc1CN1CCC(c2cccc3c2OC(C)(c2ccc(Cl)cc2)O3)CC1 (stereo not drawn) [Compound 265, 2-({4-[2-(4-chlorophenyl)-2-methyl-2H-1,3-benzodioxol-4-yl]piperidin-1-yl}methyl)-3-methyl-5-[5-(trifluoromethyl)-4H-1,2,4-triazol-3-yl]pyridine]
0.058 | CCc1nocc1Cn1c(/C=C/C(=O)O)cnc1CN1CCC(c2cccc3c2OC(C)(c2ccc(Cl)cc2F)O3)CC1 (stereo not drawn) [Compound 203, (E)-3-(2-((4-(2-(4-chloro-2-fluorophenyl)-2-methylbenzo[d][1,3]dioxol-4-yl)piperidin-1-yl)methyl)-1-((3-ethylisoxazol-4-yl)methyl)-1H-imidazol-5-yl)acrylic acid]
4.4 | O=C(O)CCc1cnc(CN2CCC(c3cccc(OCc4ccc(Cl)cc4F)n3)CC2)n1CC1CCC1 [Compound 107]
> 1000 | O=C(O)CCc1ccc(CN2CCC(c3cccc(OCc4ccc(Cl)cc4F)n3)CC2)nc1 [Compound 118, 3-(6-((4-(6-((4-chloro-2-fluorobenzyl)oxy)pyridin-2-yl)piperidin-1-yl)methyl)pyridin-3-yl)propanoic acid]
0.26 | CC1(c2ccc(Cl)cc2F)Oc2cccc(C3CCN(Cc4ncc(/C=C/C(=O)O)n4CC4(F)COC4)CC3)c2O1 (stereo not drawn) [Compound 157, (E)-3-(2-((4-(2-(4-chloro-2-fluorophenyl)-2-methylbenzo[d][1,3]dioxol-4-yl)piperidin-1-yl)methyl)-1-((3-fluorooxetan-3-yl)methyl)-1H-imidazol-5-yl)acrylic acid]
0.33 | CC1(c2ccc(Cl)cc2F)Oc2cccc(C3CCN(Cc4ncc(/C=C/C(=O)O)n4CCC4CC4)CC3)c2O1 (stereo not drawn) [Compound 191, (E)-3-(2-((4-(2-(4-chloro-2-fluorophenyl)-2-methylbenzo[d][1,3]dioxol-4-yl)piperidin-1-yl)methyl)-1-(2-cyclopropylethyl)-1H-imidazol-5-yl)acrylic acid]
15 | Cc1cc(-c2nnc(C(F)(F)F)[nH]2)cnc1CN1CCC(c2cccc3c2OC(C)(c2ccc(Cl)cn2)O3)CC1 (stereo not drawn) [Compound 264, 2-({4-[2-(5-chloropyridin-2-yl)-2-methyl-2H-1,3-benzodioxol-4-yl]piperidin-1-yl}methyl)-3-methyl-5-[5-(trifluoromethyl)-4H-1,2,4-triazol-3-yl]pyridine]
0.064 | CC1(c2ccc(Cl)cc2F)Oc2cccc(C3CCN(Cc4ncc(/C=C/C(=O)O)n4CC4COC4)CC3)c2O1 (stereo not drawn) [Compound 194, (E)-3-(2-((4-(2-(4-chloro-2-fluorophenyl)-2-methylbenzo[d][1,3]dioxol-4-yl)piperidin-1-yl)methyl)-1-(oxetan-3-ylmethyl)-1H-imidazol-5-yl)acrylic acid]
6.4 | CC1(c2ccc(Cl)cc2F)Oc2cccc(C3CCN(Cc4ncc(/C=C/C(=O)O)n4CC4CN(S(C)(=O)=O)C4)CC3)c2O1 (stereo not drawn) [Compound 174, (E)-3-(2-((4-(2-(4-chloro-2-fluorophenyl)-2-methylbenzo[d][1,3]dioxol-4-yl)piperidin-1-yl)methyl)-1-((1-(methylsulfonyl)azetidin-3-yl)methyl)-1H-imidazol-5-yl)acrylic acid]
8.7 | C/C(=C\c1cnc(CN2CCC(c3cccc4c3O[C@](C)(c3ccc(Cl)cc3F)O4)CC2)n1C[C@@H]1CCO1)C(=O)O (single isomer, unassigned) [Compound 131b]
0.023 | CCn1cncc1Cn1c(CCC(=O)O)cnc1CN1CCC(c2cccc(OCc3ccc(Cl)cc3F)n2)CC1 [Compound 244, 3-(2-((4-(6-((4-chloro-2-fluorobenzyl)oxy)pyridin-2-yl)piperidin-1-yl)methyl)-1-((1-ethyl-1H-imidazol-5-yl)methyl)-1H-imidazol-5-yl)propanoic acid]
6.8 | Cc1cc(-c2nnc(C(F)(F)F)[nH]2)cnc1CN1CCC(c2cccc3c2OC(C)(c2ccc(F)cc2)O3)CC1 (stereo not drawn) [Compound 263, 2-({4-[2-(4-fluorophenyl)-2-methyl-2H-1,3-benzodioxol-4-yl]piperidin-1-yl}methyl)-3-methyl-5-[5-(trifluoromethyl)-4H-1,2,4-triazol-3-yl]pyridine]
3300 | Cc1cc(CCC(=O)O)cnc1CN1CCC(c2cccc(OCc3ccc(Cl)cc3F)n2)CC1 [Compound 117]
